Assay results: publication PMC10246557, “Kinetic and inhibition studies on human Jumonji-C (JmjC) domain-containing protein 5” (RSC Chemical Biology, 2023)
Read-outs that look alike come from different tables or passages of the source.

What was measured:
[1] = tested on: human AspH; conditions: absence of 2OG; AspH 0.1 μM, 2OG derivative 330 μM, Fe(II) 50 μM, hFX-CP101–119 2.0 μM; cited from earlier work
[2] = target: T1, human JMJD5 (Homo sapiens, UniProt Q8N371); experiment: SPE-MS JMJD5 turnover and kinetic assay (RPS6_128–148 hydroxylation); assay type: biochemical; conditions: for JMJD5 (%): RPS6_128–148 hydroxylation with the compound as cosubstrate: absence of 2OG, JMJD5 0.15 μM, 2OG derivative 400 μM, Fe(II) 20 μM, RPS6_128–148 2.0 μM
T1 construct: made in house; host or cells: Escherichia coli BL21(DE3)
Method: JMJD5 turnover assays for time course and kinetic experiments were performed in 96-well polypropylene assay plates (Greiner) with either […] total reaction volume using the concentrations given in the manuscript or ESI, ^† and JMJD5-catalysed substrate hydroxylation was directly monitored using SPE-MS. […] Assay samples were aspirated under vacuum for 0.6 s and loaded onto a C4 solid phase extraction (SPE) cartridge. After loading, the C4 SPE cartridge was washed with 0.1%v/v aqueous formic acid to remove non-volatile buffer salts (5.5 s, 1.5 mL min^−1). The peptide was eluted from the SPE cartridge with 0.1%v/v aqueous formic acid in 80/20v/v acetonitrile/water into the mass spectrometer (5.5 s, 1.5 mL min^−1) and the SPE cartridge re-equilibrated with 0.1%v/v aqueous formic acid (0.5 s, 1.5 mL min^−1). The mass spectrometer was operated using the MassHunter Workstation B.08.00 software (Agilent), the mass spectrometer parameters were: capillary voltage (4000 V), nozzle voltage (1000 V), fragmentor voltage (365 V), gas temperature (280 °C), gas flow (13 L min^−1), sheath gas temperature (350 °C), sheath gas flow (12 L min^−1). […] Data were exported into Microsoft Excel and used to calculate the % conversion of the hydroxylation reaction using the equation: % conversion = 100 × (integral product peptide)/(integral substrate peptide + integral product peptide).
parameters (continues on the following two pages). Maximum velocities (vapp ) and Michaelis constants (Kapp)
of JMJD5 were determined in independent triplicates, monitoring the JMJD5-catalyzed hydroxylation of the
SPE-MS, as described (Experimental Section).
20 °C). Measurement times were normalized to the first sample injection analyzed after the addition of JMJD5 to
shown as the mean of three independent runs (n = 3; mean ± standard deviation, SD).
hexahydrate (20 μM, (NH4)2Fe(SO4)2·6H2O); and (b) hydroxylation rates used to determine kinetic parameters of
(1 picture or pasted object on this page, not shown here)
Maximum velocities (vapp ) and
Michaelis constants (Kapp) of JMJD5 were determined in independent triplicates for (1R)-3-
(carboxycarbonyl)cyclopentane-1-carboxylic acid (14), monitoring the JMJD5-catalyzed hydroxylation of the
as described (Experimental Section).
pH 7.5, 20 °C). Measurement times were normalized to the first sample injection analyzed after the addition of
(§1) Data are shown as the mean of three independent runs (n = 3; mean ± SD).
to determine kinetic parameters of JMJD5 for 14.

[3] = target: T2, human KDM4E (Homo sapiens, UniProt B2RXH2); experiment: KDM4E SPE-MS turnover and kinetic assay (H3 K9(me3) peptide demethylation); assay type: biochemical; conditions: for K app m / k app cat: 0.15 μM KDM4E, ARTAQTARK(me3)STGGIA 10 μM
T2 sequence (B2RXH2 1-506): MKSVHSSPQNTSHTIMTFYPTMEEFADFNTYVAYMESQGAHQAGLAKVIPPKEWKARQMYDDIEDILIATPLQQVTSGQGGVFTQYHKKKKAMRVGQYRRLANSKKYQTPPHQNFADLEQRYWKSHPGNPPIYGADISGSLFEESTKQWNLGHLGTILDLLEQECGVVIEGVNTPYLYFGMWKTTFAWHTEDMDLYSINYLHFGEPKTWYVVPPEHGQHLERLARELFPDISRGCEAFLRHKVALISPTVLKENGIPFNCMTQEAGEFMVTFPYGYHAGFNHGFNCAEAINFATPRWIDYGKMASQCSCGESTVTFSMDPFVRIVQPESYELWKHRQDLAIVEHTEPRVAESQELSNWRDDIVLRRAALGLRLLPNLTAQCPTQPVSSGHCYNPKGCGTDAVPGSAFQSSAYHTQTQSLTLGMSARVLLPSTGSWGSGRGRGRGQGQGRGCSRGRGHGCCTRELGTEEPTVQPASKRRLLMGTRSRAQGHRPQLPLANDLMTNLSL
Method: KDM4E turnover and inhibition assays were performed as reported using recombinant human KDM4E and a histone 3 K9(me3) derivative (i.e. […](me3)STGGIA)[41] as substrate.[95]
Supplementary Figure S3. Rates of KDM4E-catalyzed Nε-trimethyl lysine demethylations of a histone 3- […]
Maximum velocities (vapp ) and Michaelis […]
catalyzed Nε-trimethyl lysine demethylation of the histone 3 K9(me3)-derived peptide […]
(me3)STGGIA2 by SPE-MS as described;3 note that mono-, di-, and tri-demethylated product […]
buffer (50 mM MES, pH 7.0, 20 °C). Measurement times were normalized to the first sample injection analyzed […]
as §1
(a) Time course of the KDM4E-catalyzed Nε-trimethyl lysine demethylation reaction of the […]

[4] = tested on: human FIH; conditions: FIH 0.15 μM, cited from earlier work; for FIH (%): substrate hydroxylation with the compound as cosubstrate: absence of 2OG, 2OG derivative 330 μM, Fe(II) 50 μM, HIF-1α788–822 5.0 μM; for K m / k cat: HIF-1α788–822 substrate
[5] = absence of 2OG, KDM4E 0.15 μM, 2OG derivative 330 μM, Fe(II) 50 μM, ARTAQTARK(me3)STGGIA 10.0 μM

T1 sequence (Q8N371 whole entry): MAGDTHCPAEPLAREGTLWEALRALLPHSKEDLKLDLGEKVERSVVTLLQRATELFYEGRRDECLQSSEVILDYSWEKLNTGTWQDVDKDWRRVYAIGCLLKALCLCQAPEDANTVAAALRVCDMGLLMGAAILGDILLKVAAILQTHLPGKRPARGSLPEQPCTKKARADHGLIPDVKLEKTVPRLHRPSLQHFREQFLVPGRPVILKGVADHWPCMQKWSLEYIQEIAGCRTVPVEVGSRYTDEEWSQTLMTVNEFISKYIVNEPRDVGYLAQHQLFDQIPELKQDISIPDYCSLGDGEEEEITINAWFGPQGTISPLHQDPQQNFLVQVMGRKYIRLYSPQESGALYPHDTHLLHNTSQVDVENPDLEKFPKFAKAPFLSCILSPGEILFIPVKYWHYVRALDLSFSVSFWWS

Molecule | AspH (%): substrate hydroxylation with the compound as cosubstrate [1] | JMJD5 (%): RPS6_128–148 hydroxylation with the compound as cosubstrate [2] | KDM4E (%): substrate demethylation with the compound as cosubstrate [3, 5] | FIH (%): substrate hydroxylation with the compound as cosubstrate [4] | further results
CCC(CC(=O)O)C(=O)C(=O)O (stereo not drawn) [C00005] | <1% | <1% | <1% | ∼2% | –
O=C(O)C(=O)c1ccccc1C(=O)O [Entry 26] | < 1% | < 1% | < 1% | < 1% | –
O=C(O)CCC(=O)C(=O)O [C00001] | – | ∼40% | – | ∼50% | KDM4E (%): substrate demethylation with the compound as cosubstrate [3]: ∼70%
CC(C)(CC(=O)C(=O)O)C(=O)O [C00002] | – | – | <1% | – | –
O=C(O)CC(Cc1ccc(OC(F)(F)F)cc1)C(=O)C(=O)O (stereo not drawn) [C00011] | <1% | <1% | <1% | <1% | –
O=C(O)C(=O)CC(Cc1ccccc1)C(=O)O (stereo not drawn) [C00010] | <1% | <1% | <1% | <1% | –
O=C(O)C(=O)c1ccccc1C(=O)O [C00014] | <1% | <1% | <1% | <1% | –
O=C(O)CCC(=O)C(=O)O [C00021] | – | – | – | – | K m [4]: 0.8 ± 0.1 µM; k cat [4]: 0.04 ± 0.01 s⁻¹
CC1(C)C(C(=O)O)C1C(=O)C(=O)O (mixture of isomers) [Entry 21] | < 1% | < 1% | < 1% | < 1% | –
RCCD1_134–150: RCCD1 amino acids 134–150, LPLLPCARAYVSPRAPF, JMJD5 substrate peptide [reference compound] | – | – | – | – | JMJD5-catalyzed hydroxylation of the substrate peptide ([2]; after 1 h incubation, 50 mM MOPS pH 7.5, 20 °C): < 10%
CC(C)(C)CCC(CC(=O)C(=O)O)C(=O)O (racemic) [Entry 17] | < 1% | < 1% | < 1% | < 1% | –
O=C(O)C(=O)c1cccc(C(=O)O)c1 [C00016] | <1% | <1% | <1% | <1% | –
O=C(O)C(=O)c1cscc1C(=O)O [Entry 34] | < 1% | < 1% | < 1% | < 1% | –
O=C(O)CCC(=O)C(=O)O [C00019] | – | – | – | – | K app m ([2]; 0.15 μM JMJD5, 50 mM MOPS pH 7.5, 20 °C, LAA present): 0.29 ± 0.04 µM; k app cat ([2]; 0.15 μM JMJD5, 50 mM MOPS pH 7.5, 20 °C, LAA present, calculated from vmax): 0.0056 ± 0.0002 s⁻¹
O=C(O)CCC(=O)C(=O)O [C00023] | – | – | – | – | K app m [3]: 4.2 ± 1.1 µM; k app cat [3]: 0.14 ± 0.01 s⁻¹
COc1ccc(CC(CC(=O)O)C(=O)C(=O)O)cc1 (stereo not drawn) [C00013] | <1% | ∼10% | ∼5% | <1% | –
CC(C)CC(CC(=O)C(=O)O)C(=O)O (racemic) [Entry 16] | < 1% | < 1% | < 1% | < 1% | –
CCCC(CC(=O)C(=O)O)C(=O)O (stereo not drawn) [C00006] | <1% | ∼10% | <1% | ∼5% | –
O=C(O)C(=O)CC(Cc1ccccc1)C(=O)O (racemic) [Entry 19] | < 1% | < 1% | < 1% | < 1% | –
O=C(O)C(=O)C1CC[C@@H](C(=O)O)C1 (stereo partly drawn) [C00012] | ∼15% | – | <1% | ∼2% | –
O=C(O)CC(CCCc1ccccc1)C(=O)C(=O)O (stereo not drawn) [C00009] | <1% | <1% | ∼2% | <1% | –
O=C(O)C(=O)C1CC[C@@H](C(=O)O)C1 (stereo partly drawn) [C00022] | – | – | – | – | K m [4]: 14.8 ± 2.6 µM; k cat [4]: 0.01 ± 0.001 s⁻¹
O=C(O)C(=O)C1CC[C@@H](C(=O)O)C1 (stereo partly drawn) [C00024] | – | – | – | – | K app m [3]: No reaction; k app cat [3]: No reaction
O=C1O[C@H]([C@@H](O)CO)C(O)=C1O [LAA, L-ascorbic acid, reference compound] | – | – | – | – | cosubstrate/cofactor role for JMJD5 [2]: not a cosubstrate/cofactor
